The values that follow come from ChEMBL document CHEMBL3102818, “Tocopheramine succinate and tocopheryl succinate: mechanism of mitochondrial inhibition and superoxide radical production” (Bioorg Med Chem, 2014).

The structures appear in SMILES notation. The source made the active and inactive calls. The calls are words filed in the database; no cut-off is given here. A value given as a limit tells only on which side of the number the result lay.

Series [1] can be described thus: Induction of superoxide radical generation in mouse N18TG2 cells assessed as CMH oxidation at 50 uM after 2 hrs by ESR spectroscopy (reference value: 0.40 +/- 0.05 pmol/min). The class given is functional.
The species named for series [2] is Bos taurus. Put plainly: Induction of superoxide radical generation in bovine succinate-respiring submitochondrial particles assessed as oxidation of CPH at 36 uM after 2 mins by ESR spectroscopy in presence of rotenone. The class given is functional.
The species named for series [3] is Bos taurus. The series is described as follows: Induction of superoxide radical generation in bovine succinate-respiring submitochondrial particles assessed as oxidation of CPH at 36 uM after 2 mins by ESR spectroscopy. The format is functional.
For series [4], the species on record is Bos taurus. The series is described as follows: Induction of superoxide radical generation in bovine NADH-respiring submitochondrial particles assessed as oxidation of CPH at 36 uM after 2 mins by ESR spectroscopy. The format is functional.
The species entered for series [5] is Bos taurus. The series is described as follows: Induction of superoxide radical generation in bovine NADH-respiring submitochondrial particles assessed as oxidation of CPH at 900 uM after 2 mins by ESR spectroscopy in presence of superoxide dismutase relative to control. The class given is functional.
Series [6] relates to Liver. The series is described as follows: Drug degradation in rat liver homogenates assessed as alpha-TOH formation at 500 nmol after 4 hrs by HPLC analysis. The format is ADME, tissue-based. Conditions: tissue homogenate.
The species entered for series [7] is Bos taurus. The series is described as follows: Induction of superoxide radical generation in bovine succinate-respiring submitochondrial particles assessed as oxidation of CPH at 900 uM after 2 mins by ESR spectroscopy in presence of rotenone. The class given is functional.
Series [8] deals with N18TG2. The series is described as follows: Cytotoxicity against mouse N18TG2 cells at 6.25 to 100 uM by MTT assay. The class given is functional, cell-based.
For series [9], the species on record is Bos taurus. The series is described as follows: Inhibition of bovine mitochondrial electron transport protein complex 1 NADH:dUQ oxidoreductase activity by spectrophotometry.
Series [10] deals with Liver. Put plainly: Drug degradation in denaturated rat liver homogenates assessed as compound recovery at 500 nmol after 4 hrs by HPLC analysis. The format is ADME, tissue-based. Conditions: tissue homogenate.
The subject of series [11] is N18TG2. The series is described as follows: Induction of superoxide radical generation in mouse N18TG2 cells assessed as CMH oxidation at 200 uM after 2 hrs by ESR spectroscopy relative to control. The class given is functional, cell-based.
Series [12] deals with HeLa. Put plainly: Cytotoxicity against human HeLa cells at 100 to 200 uM by MTT assay. The class given is functional, cell-based. (Tetrazolium assays rely on reduction of a dye to a coloured formazan, in cell work by metabolically active cells.)
Series [13] is filed under the species Bos taurus. The series is described as follows: Induction of superoxide radical generation in bovine succinate-respiring submitochondrial particles assessed as oxidation of CPH at 900 uM after 2 mins by ESR spectroscopy. The class given is functional.
The nature of series [14]: Inhibition of bovine mitochondrial electron transport protein complex 2 succinate:DCPIP oxidoreductase activity by spectrophotometry. Set-up: species or system Bos taurus.
The species entered for series [15] is Bos taurus. The series is described as follows: Induction of superoxide radical generation in bovine succinate-respiring submitochondrial particles assessed as oxidation of CPH after 2 mins by ESR spectroscopy relative to control. The class given is functional.
The species named for series [16] is Bos taurus. Put plainly: Inhibition of oxygen consumption in bovine succinate-respiring submitochondrial particles involving complexes 2,3,4 after 3 mins relative to control. The format is functional.
The test system of series [17] is Liver. Put plainly: Drug degradation in rat liver homogenates at 500 nmol after 4 hrs by HPLC analysis. The format is ADME, tissue-based. Conditions: tissue homogenate.
The nature of series [18]: (§1) Inhibition of bovine mitochondrial electron transport protein complex 3 dUQH2:cytochrome c oxidoreductase activity by spectrophotometry. Further details: species or system Bos taurus.
Series [19] is filed under the species Bos taurus. The series is described as follows: Inhibition of oxygen consumption in bovine NADH-respiring submitochondrial particles involving complexes 1,3,4 after 3 mins relative to control. The format is functional.
Series [20] is filed under the species Bos taurus. Put plainly: Induction of superoxide radical generation in bovine NADH-respiring submitochondrial particles assessed as oxidation of CPH after 2 mins by ESR spectroscopy relative to control. The class given is functional.
For series [21], the species on record is Bos taurus. The series is described as follows: Induction of superoxide radical generation in bovine NADH-respiring submitochondrial particles assessed as oxidation of CPH at 900 uM after 2 mins by ESR spectroscopy. The class given is functional.
Series [22] is filed under the species Bos taurus. The series is described as follows: Induction of superoxide radical generation in bovine succinate-respiring submitochondrial particles assessed as oxidation of CPH at 900 uM after 2 mins by ESR spectroscopy in presence of superoxide dismutase relative to control. The format is functional.
Series [23] is described as follows: Drug degradation in mouse N18TG2 cells assessed as alpha-TOH formation at 10 nmol after 24 hrs by HPLC analysis. The format is ADME, cell-based. Particulars: n18tg2, 24 h.
The species entered for series [24] is Bos taurus. The series is described as follows: Induction of superoxide radical generation in bovine succinate-respiring submitochondrial particles assessed as oxidation of CPH at 50 uM after 2 mins by ESR spectroscopy. The format is functional.
Series [25] is filed under the species Bos taurus. Described as §1.

Consider `CCCCCC[C@H]1C(=O)O[C@H](C)[C@H](NC(=O)c2cccc(NC=O)c2O)C(=O)O[C@@H](C)[C@@H]1OC(=O)CC(C)C` [ANTIMYCIN A], for which the Activity in series [1] was 1.2 pmol/min. In addition, the outcome in [2], in series [3] and in series [4] was Active.
With `Cc1c(C)c2c(c(C)c1OC(=O)CCC(=O)O)CC[C@@](C)(CCC[C@H](C)CCC[C@H](C)CCCC(C)C)O2` [(+)-ALPHA-TOCOPHERYL SUCCINATE], the outcome in series [5], in [12] and in series [22] was inactive. Also, the Stability entry in series [6] was “Unstable”; in series [10] it was “Stable”; in [17] it was “Unstable”; in series [23] it was “Unstable”. Further, the result in series [7], in series [8], in [11], in series [13], in [15] and in [20] was Active. For the same molecule, the result in series [21] was Active. Further, in series [9], the inhibition result is “inactive”. In addition, the half-inhibitory concentration (IC50) in series [14] came to 42 µM; in series [18], 315 µM. The inhibition result in [16] and in series [19] was “Dose-dependent effect” each time.
For the molecule `C=C(C)[C@H]1Cc2c(ccc3c2O[C@@H]2COc4cc(OC)c(OC)cc4[C@@H]2C3=O)O1`, in series [24], the result was Active.
Take `CC(=O)Oc1c(C)c(C)c2c(c1C)CC[C@@](C)(CCC[C@H](C)CCC[C@H](C)CCCC(C)C)O2`: the outcome in series [11], in [15] and in [20] was inactive. In series [14], the IC50 was > 1000 µM. For the same molecule, in series [25], the inhibition entry was “Active”. Besides, the Drug degradation in [23] is 100%.
For the molecule `Cc1c(C)c2c(c(C)c1NC(=O)CCC(=O)O)CC[C@@](C)(CCC[C@H](C)CCC[C@H](C)CCCC(C)C)O2`, the outcome in series [5], in series [11], in series [12], in [15], in series [20] and in series [22] was inactive. Moreover, the Stability result in [6] was “Stable”; in series [10], “Stable”; in [17], “Unstable”; in [23] it was “Stable”. In addition, the result in series [8] was Active. The inhibition entry in series [9] was “inactive”. The IC50 in series [14] worked out at 106 µM; in [18], 137 µM. The inhibition entry in [16] and in series [19] was “Dose-dependent effect” each time.

One may read the IC50 as the concentration needed to halve the response being measured. A high value points to a need for much substance.
